Reference: patent US20250313574A1, “SIALIC ACID DERIVATIVES AND METHODS OF USING SAME” (EISAI R&D MANAGEMENT CO., LTD., priority 2022, published 2025)

How the values were obtained:
[1] = biological target: Recombinant human CD33 protein (Homo sapiens (Human), UniProt P20138); assay: CD33 competitive binding assay for HTS drug screen (fluorescent multivalent sialic acid probe)
Outline: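 Recombinant human CD33, coated overnight at 4° C from 10 μg/ml in pH 5.5 acetate, was preincubated briefly with compound. It was then exposed to a multivalent neutravidin/FITC/sialic acid analog A-375 probe (final 5 μM neutravidin, 15 μM A-375, 5 μM FITC) for 30 min at room temperature. After washing, bound FITC fluorescence was read.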

[2] = biological target: Recombinant Human Siglec-3/CD33 protein (His-CD33) (Homo sapiens (Human), UniProt P20138); assay: Differential scanning fluorimetry (DSF) thermal shift assay; format: binding
Recombinant Human Siglec-3/CD33 protein (His-CD33), sequence (P20138 18-259): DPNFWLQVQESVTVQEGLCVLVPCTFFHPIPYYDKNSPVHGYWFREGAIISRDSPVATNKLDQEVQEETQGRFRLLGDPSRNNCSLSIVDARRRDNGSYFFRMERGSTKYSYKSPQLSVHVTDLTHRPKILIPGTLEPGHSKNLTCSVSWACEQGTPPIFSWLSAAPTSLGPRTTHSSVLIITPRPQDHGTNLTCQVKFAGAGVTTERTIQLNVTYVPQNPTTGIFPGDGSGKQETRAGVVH

[3] = thermal melt shift of 0.5 μM CD33 protein with 50 μM compound
[4] = difference in thermal melt of CD33 protein (0.5 μM) with 50 μM compound

Recombinant human CD33 protein, sequence (P20138 18-259): as above

Structure (SMILES) | EC50 [1] | DSF (dTmD) [2, 3] | DSF (dTmD) [2, 4]
CC(=O)N[C@H]1[C@H]([C@H](O)[C@H](O)CNC(=O)c2ccccc2)O[C@@](CCN2CCOC[C@@]23CCN(C(=O)OC(C)(C)C)C3)(C(=O)O)C[C@@H]1O [A-187] | 1010 nM | 6.8 | 
CC(=O)N[C@H]1[C@H]([C@H](O)[C@H](O)CNC(=O)c2cc(C)c(O)c(C)c2)O[C@@](CCN2CCOC[C@@]23CCN(C(=O)c2ccccc2)C3)(C(=O)O)C[C@@H]1O [A-101] | 921 nM | 7.4 | 
CC(=O)N[C@H]1[C@H]([C@H](O)[C@H](O)CNC(=O)c2cc(C)c(O)c(C)c2)O[C@@](CCN2C(C)CCC23CCN(C(=O)OC(C)(C)C)C3)(C(=O)O)C[C@@H]1O (some centres unmarked) [A-025] | 115 nM | 10.0 | 
CC(=O)N[C@H]1[C@H]([C@H](O)[C@H](O)CNC(=O)c2cc(C)c(N)c(C)c2)O[C@@](CCN2CCOC[C@@]23CCN(C(=O)OC(C)(C)C)C3)(C(=O)O)C[C@@H]1O [A-119] | 17 nM | 14.0 | 
Cc1cc(C(=O)NC[C@@H](O)[C@@H](O)[C@@H]2O[C@@](C/C=C/c3cccc(CNC(=O)c4ccn(-c5ccccn5)n4)c3)(C(=O)O)C[C@H](O)[C@H]2NC(=O)Cn2cc(C3CCCCC3)nn2)cc(C)c1O [A-275] | 8630 nM |  | 7.0 °C
CC(=O)N[C@H]1[C@H]([C@H](O)[C@H](O)CNC(=O)c2cc(Cl)[nH]n2)O[C@@](CCN2CCOC[C@@]23CCN(C(=O)OC(C)(C)C)C3)(C(=O)O)C[C@@H]1O [A-157] | 80 nM | 10.3 | 
CC(=O)N[C@H]1[C@H]([C@H](O)[C@H](O)CNC(=O)c2cc(C)c(O)c(C)c2)O[C@@](CCN2CCOC[C@@]23CCN(C(=O)C2(C)CCC2)C3)(C(=O)O)C[C@@H]1O [A-103] | 1020 nM | 6.6 | 
CC(=O)N[C@H]1[C@H]([C@H](O)[C@H](O)CNC(=O)c2cc(C)c(O)c(C)c2)O[C@@](CCNC2(C)CCN(C(=O)OC(C)(C)C)C2)(C(=O)O)C[C@@H]1O (some centres unmarked) [A-026] | 830 nM | 9.2 | 
CC(=O)N[C@H]1[C@H]([C@H](O)[C@H](O)CNC(=O)c2cc(C)c(O)c(C)c2)O[C@@](C/C=C/c2cccc(CNC(=O)C3CCC(Nc4ccc(C(N)=O)cn4)CC3)c2)(C(=O)O)C[C@@H]1O (some centres unmarked) [A-258] | 9370 nM |  | 0.8 °C
CC(=O)N[C@H]1[C@H]([C@H](O)[C@H](O)CNC(=O)c2cc(C)c(O)c(C)c2)O[C@@](CCN2CCOC[C@]23CCN(C(=O)OC(C)(C)C)C3)(C(=O)O)C[C@@H]1O [A-003] | 1140 nM | 5.12 | 
CC(=O)N[C@H]1[C@H]([C@H](O)[C@H](O)CNC(=O)c2cn(C)nc2C)O[C@@](CCN2CCOC[C@@]23CCN(C(=O)OC(C)(C)C)C3)(C(=O)O)C[C@@H]1O [A-136] | 440 nM | 6.5 | 
Cc1cc2cc(C)c1OCCCNC(=O)[C@H](C)COCCCC[C@]1(C(=O)O)C[C@H](O)[C@@H](NC(=O)Cn3cc(C4CCCCC4)nn3)[C@@H](O1)[C@H](O)[C@H](O)CNC2=O [A-359] | 59800 nM |  | 1.1 °C
CC(=O)N[C@H]1[C@H]([C@H](O)[C@H](O)CNC(=O)c2ccc3cn[nH]c3c2)O[C@@](CCN2CCOC[C@@]23CCN(C(=O)OC(C)(C)C)C3)(C(=O)O)C[C@@H]1O [A-151] | 206 nM | 8.9 | 
CC(=O)N[C@H]1[C@H]([C@H](O)[C@H](O)CNC(=O)c2cc(C)c(OCCN)c(C)c2)O[C@@](CCN2CCCC[C@@]23CCN(C(=O)OC(C)(C)C)C3)(C(=O)O)C[C@@H]1O [A-027] | 64 nM | 10.4 | 
CC(=O)N[C@H]1[C@H]([C@H](O)[C@H](O)CNC(=O)c2cc(C)c(O)c(C)c2)O[C@@](C/C=C/c2cccc(-c3cc(N)on3)c2)(C(=O)O)C[C@@H]1O [A-291] | 4300 nM |  | 2.9 °C
CC(=O)N[C@H]1[C@H]([C@H](O)[C@H](O)CNC(=O)c2cc(C)c(O)c(C)c2)O[C@@](CCN2CCOC[C@@]23CCN(C(=O)C2CC2)C3)(C(=O)O)C[C@@H]1O [A-096] | 454 nM | 7.6 | 
Cc1cc2cc(C)c1OCCCNC(=O)CCCCCCC[C@]1(C(=O)O)C[C@H](O)[C@@H](NC(=O)Cn3cc(C4CCCCC4)nn3)[C@@H](O1)[C@H](O)[C@H](O)CNC2=O [A-344] | 18000 nM |  | 1.52 °C

Structure (SMILES) | EC50 [1] | DSF (dTmD) [2, 3] | DSF (dTmD) [2, 4]
CC(=O)N[C@H]1[C@H]([C@H](O)[C@H](O)CNC(=O)c2cc(C)c(O)c(C)c2)O[C@@](CCN2CCOC[C@@]23CCN(C(=O)NC2(c4ccc(F)cc4)CCCC2)C3)(C(=O)O)C[C@@H]1O [A-057] | 265 nM | 9.7 | 
Cc1cc2cc(C)c1OCCOC[C@@H](NC(=O)C1CCCOC1)COC/C=C/C[C@]1(C(=O)O)C[C@H](O)[C@@H](NC(=O)Cn3cc(C4CCCCC4)nn3)[C@@H](O1)[C@H](O)[C@H](O)CNC2=O (some centres unmarked) [A-338] | 3820 nM |  | 5.6 °C
CC(=O)N[C@H]1[C@H]2O[C@](C(=O)O)(CCCc3cccc(c3)[C@@H](NC(=O)C3CCCOC3)CCCCc3cc(cc(Cl)c3O)C(=O)NC[C@@H](O)[C@H]2O)C[C@@H]1O (some centres unmarked) [A-351] | 15000 nM |  | 3.1 °C
CC(=O)N[C@H]1[C@H]([C@H](O)[C@H](O)CNC(=O)c2cc(C)c(O)c(C)c2)O[C@@](C/C=C/c2cccc(CNC(=O)c3ccc(Nc4ncccn4)cc3)c2)(C(=O)O)C[C@@H]1O [A-240] | 227 nM |  | 6.2 °C
CC(=O)N[C@H]1[C@H]([C@H](O)[C@H](O)CNC(=O)c2cc(C)c(O)c(C)c2)O[C@@](C/C=C/c2cccc(CNC(=O)C3(C)COC3)c2)(C(=O)O)C[C@@H]1O [A-244] | 9560 nM |  | 0.8 °C
CC(=O)N[C@H]1[C@H]([C@H](O)[C@H](O)CNC(=O)c2cccc(N(C)C)c2)O[C@@](CCN2CCOC[C@@]23CCN(C(=O)OC(C)(C)C)C3)(C(=O)O)C[C@@H]1O [A-183] | 173 nM | 10.3 | 
CC(=O)N[C@H]1[C@H]([C@H](O)[C@H](O)CNC(=O)c2cc(C)[nH]n2)O[C@@](CCN2CCOC[C@@]23CCN(C(=O)OC(C)(C)C)C3)(C(=O)O)C[C@@H]1O [A-156] | 138 nM | 8.9 | 
Cc1cc(C(=O)NC[C@@H](O)[C@@H](O)[C@@H]2O[C@@](C/C=C/c3cccc(CNC(=O)C4CCCC4)c3)(C(=O)O)C[C@H](O)[C@H]2NC(=O)Cn2cc(C3CCCCC3)nn2)cc(C)c1O [A-264] | 6330 nM |  | 5.5 °C
CC(=O)N[C@H]1[C@H]([C@H](O)[C@H](O)CNC(=O)c2ccc(C(F)(F)F)c(O)c2)O[C@@](CCN2CCOC[C@@]23CCN(C(=O)OC(C)(C)C)C3)(C(=O)O)C[C@@H]1O [A-146] | 262 nM | 10.6 | 
CC(=O)N[C@H]1[C@H]([C@H](O)[C@H](O)CNC(=O)c2cc(C)c(O)c(C)c2)O[C@@](CC2OC(C)(C)O[C@H]2c2cccc(N3CCCC3=O)c2)(C(=O)O)C[C@@H]1O (some centres unmarked) [A-309] | 540 nM |  | 5.2 °C
COCCC(=O)NCc1cccc(/C=C/C[C@]2(C(=O)O)C[C@H](O)[C@@H](NC(=O)Cn3cc(C4CCCCC4)nn3)[C@H]([C@H](O)[C@H](O)CNC(=O)c3cc(C)c(O)c(C)c3)O2)c1 [A-265] | 1370 nM |  | 4.1 °C
CCC/C(C)=C/C(=O)NC[C@@H](O)[C@@H](O)[C@@H]1O[C@@](CCN2CCOC[C@@]23CCN(C(=O)OC(C)(C)C)C3)(C(=O)O)C[C@H](O)[C@H]1NC(C)=O [A-162] | 4210 nM | 4.8 | 
CC(=O)N[C@H]1[C@H]([C@H](O)[C@H](O)CNC(=O)c2cc(C)c(F)c(C)c2)O[C@@](CCN2CCOC[C@@]23CCN(C(=O)OC(C)(C)C)C3)(C(=O)O)C[C@@H]1O [A-192] | 47 nM | 12.1 | 
Cc1cc(C(=O)NC[C@@H](O)[C@@H](O)[C@@H]2O[C@@](C/C=C/c3cccc(CNC(=O)C4CCCO4)c3)(C(=O)O)C[C@H](O)[C@H]2NC(=O)Cn2cc(C3CCCCC3)nn2)cc(C)c1O (some centres unmarked) [A-267] | 9170 nM |  | 3.8 °C
CC(=O)N[C@H]1[C@H]([C@H](O)[C@H](O)CNC(=O)c2cc(C)c(O)c(C)c2)O[C@@](CCN2CCOC[C@@]23CCN(C(=O)C2CCCCC2(F)F)C3)(C(=O)O)C[C@@H]1O (some centres unmarked) [A-070] | 31 nM | 12.0 | 
CC(=O)N[C@H]1[C@H]([C@H](O)[C@H](O)CNC(=O)c2cc(C)c(O)c(C)c2)O[C@@](C/C=C/c2cccc(CNC(=O)c3ccc4[nH]c(C(C)O)nc4c3)c2)(C(=O)O)C[C@@H]1O (some centres unmarked) [A-243] | 255 nM |  | 5.4 °C
CC(=O)N[C@H]1[C@H]([C@H](O)[C@H](O)CNC(=O)c2cc(Br)ccc2F)O[C@@](CCN2CCOC[C@@]23CCN(C(=O)OC(C)(C)C)C3)(C(=O)O)C[C@@H]1O [A-172] | 820 nM | 7.6 | 
